Here are results for five compounds from ChEMBL document CHEMBL3044838, “Phytotoxic activity of quinones and resorcinolic lipid derivatives” (J Agric Food Chem, 2010).

Molecules are shown by their SMILES. The source made the active and inactive calls. No cut-off for these calls is given here.

Type in all cases: functional, organism-based
Assay [1] deals with Lactuca sativa. Briefly: Phytotoxic activity against Lactuca sativa cv. Iceberg A (lettuce) seedlings assessed as growth inhibition at 0.01 mM.
The test system of assay [2] is Agrostis stolonifera. Briefly: Phytotoxic activity against Agrostis stolonifera var. Penncross seedlings assessed as growth inhibition at 0.1 mM.
Assay [3] concerns Agrostis stolonifera. Briefly: Phytotoxic activity against Agrostis stolonifera var. Penncross seedlings assessed as growth inhibition at 0.3 mM.
For assay [4], the system named is Agrostis stolonifera. In words: Phytotoxic activity against Agrostis stolonifera var. Penncross seedlings assessed as growth inhibition at 1 mM.
Assay [5] has as its system Agrostis stolonifera. Briefly: Phytotoxic activity against Agrostis stolonifera var. Penncross seedlings assessed as growth inhibition at 0.03 mM.
In assay [6] the test system is Lactuca sativa. In words: Phytotoxic activity against Lactuca sativa cv. Iceberg A (lettuce) seedlings assessed as growth inhibition at 0.1 mM.
Assay [7] concerns Agrostis stolonifera. In words: Phytotoxic activity against Agrostis stolonifera var. Penncross seedlings assessed as growth inhibition at 0.01 mM.
In assay [8] the test system is Lactuca sativa. In words: Phytotoxic activity against Lactuca sativa cv. Iceberg A (lettuce) seedlings assessed as growth inhibition at 0.03 mM.
Assay [9] deals with Lactuca sativa. In words: Phytotoxic activity against Lactuca sativa cv. Iceberg A (lettuce) seedlings assessed as growth inhibition at 0.3 mM.
The test system of assay [10] is Lactuca sativa. In words: Phytotoxic activity against Lactuca sativa cv. Iceberg A (lettuce) seedlings assessed as growth inhibition at 1 mM.

On to `CCCCCCCCCCCCCCC1=C(O)C(=O)C=C(OC)C1=O`, for which the “growth inhibition (GI)” value in the assay on Lactuca sativa [1], in the assay on Agrostis stolonifera [2], with Agrostis stolonifera [3], in the assay on Agrostis stolonifera [4], in the assay with Agrostis stolonifera [5] and with Lactuca sativa [6] was “inactive” each time. For the same compound, the “growth inhibition (GI)” value with Agrostis stolonifera [7] and in the assay with Lactuca sativa [8] was “inactive” each time.

On to `CCCCCC1=C(OC)C(=O)C=C(OC)C1=O`, for which the “growth inhibition (GI)” value with Lactuca sativa [1], in the assay on Agrostis stolonifera [5], in the assay with Lactuca sativa [6], in the assay on Agrostis stolonifera [7] and in the assay on Lactuca sativa [8] was “inactive” each time.

Take `CCCCCCCCCCC1=C(OC)C(=O)C=C(OC)C1=O`: the “growth inhibition (GI)” value in the assay on Lactuca sativa [1], with Agrostis stolonifera [2], in the assay on Lactuca sativa [9], in the assay with Agrostis stolonifera [3], in the assay with Agrostis stolonifera [5] and in the assay with Lactuca sativa [6] was “inactive” each time. Further, the “growth inhibition (GI)” value with Agrostis stolonifera [7] and in the assay with Lactuca sativa [8] was “inactive” in each case.

On to `C=CC/C=C\C/C=C\CCCCCCCC1=C(O)C(=O)C=C(OC)C1=O`, for which the “growth inhibition (GI)” value in the assay with Lactuca sativa [1], with Agrostis stolonifera [2], with Agrostis stolonifera [3], in the assay with Agrostis stolonifera [4], with Agrostis stolonifera [5] and with Agrostis stolonifera [7] was “inactive” in each case. Besides, in the assay with Lactuca sativa [8], the “growth inhibition (GI)” value was “inactive”.

Regarding `CCCCCC1=C(O)C(=O)C=C(OC)C1=O`, the “growth inhibition (GI)” value in the assay on Lactuca sativa [1], in the assay with Agrostis stolonifera [5], in the assay with Lactuca sativa [6], in the assay with Agrostis stolonifera [7] and in the assay on Lactuca sativa [8] was “inactive” each time. Moreover, the “growth inhibition (GI)” value in the assay with Lactuca sativa [10] was “Active”.
